# Measured values as given in US10487068B2, “Pyridazine derivatives as RORc modulators” (Genentech, Inc., priority 2015, dated 2019).
# Target: T1, RORc ligand binding domain (Homo sapiens, UniProt P51449)
# T1 sequence (P51449 269-508 limits assumed): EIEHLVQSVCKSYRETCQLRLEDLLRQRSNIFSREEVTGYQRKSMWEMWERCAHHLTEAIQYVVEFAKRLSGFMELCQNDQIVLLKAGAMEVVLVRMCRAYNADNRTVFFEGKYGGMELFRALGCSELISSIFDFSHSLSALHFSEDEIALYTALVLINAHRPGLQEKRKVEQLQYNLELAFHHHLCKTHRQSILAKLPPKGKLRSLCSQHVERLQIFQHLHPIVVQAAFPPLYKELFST
# Experiment: In Vitro RORc Ligand Binding Assay
# Details: RORc IC50, radioligand 25-[3H]hydroxycholesterol 6 nM; 0.6 ug/mL RORc receptor; 3 h at 25° C.
row,Structure (SMILES),IC50
1,"CC(C)OC(=O)c1coc(-c2cncc([C@@]34CC[C@@H](c5cc(-c6c(F)cccc6F)nnc53)C4(C)C)n2)n1 [Example 346, isopropyl 2-(6-((5R,8S)-3-(2,6-difluorophenyl)-9,9-dimethyl-5,6,7,8-tetrahydro-5,8-methanocinnolin-8-yl)pyrazin-2-yl)oxazole-4-carboxylate]",3.7 nM
2,"CC(C)(O)c1ncc(-c2cncc([C@@]34CC[C@@H](c5cc(-c6c(F)cccc6F)nnc53)C4(C)C)n2)o1 [Example 347, 2-(5-(6-((5R,8S)-3-(2,6-difluorophenyl)-9,9-dimethyl-5,6,7,8-tetrahydro-5,8-methanocinnolin-8-yl)pyrazin-2-yl)oxazol-2-yl)propan-2-ol]",6.8 nM
3,C[C@@H](O)c1ccn(-c2nccc([C@@]34CC[C@@H](c5cc(-c6c(F)cccc6F)nnc53)C4(C)C)n2)n1 [Example 348],10.6 nM
4,CC1(C)[C@H]2CC[C@]1(c1ccnc(C3CCN(S(C)(=O)=O)CC3)n1)c1nnc(-c3c(F)cccc3F)cc12 [Example 349],6.3 nM
5,CC(C)(O)c1coc(-c2nccc([C@@]34CC[C@@H](c5cc(-c6c(F)cccc6F)nnc53)C4(C)C)n2)n1 [Example 350],16.4 nM
6,CC(=O)N1CCC(c2nccc([C@@]34CC[C@@H](c5cc(-c6c(F)cccc6F)nnc53)C4(C)C)n2)CC1 [Example 351],10.5 nM
7,Cc1nc(C)n(-c2nccc([C@@]34CC[C@@H](c5cc(-c6c(F)cccc6F)nnc53)C4(C)C)n2)n1 [Example 352],15.2 nM
8,C[C@H](O)c1ccn(-c2nccc([C@@]34CC[C@@H](c5cc(-c6c(F)cccc6F)nnc53)C4(C)C)n2)n1 [Example 353],10.8 nM
9,"CC(C)(O)Cc1n[nH]c(-c2cncc([C@@]34CC[C@@H](c5cc(-c6c(F)cccc6F)nnc53)C4(C)C)n2)n1 [Example 354, 1-(5-(6-((5R,8S)-3-(2,6-difluorophenyl)-9,9-dimethyl-5,6,7,8-tetrahydro-5,8-methanocinnolin-8-yl)pyrazin-2-yl)-1H-1,2,4-triazol-3-yl)-2-methylpropan-2-ol]",20.7 nM
10,CC1(C)[C@H]2CC[C@]1(c1ccnc(C3CCN(C(=O)CO)CC3)n1)c1nnc(-c3c(F)cccc3F)cc12 [Example 355],12.4 nM
11,CC1(C)[C@H]2CC[C@]1(c1ccnc(C3CCOCC3)n1)c1nnc(-c3c(F)cccc3F)cc12 [Example 356],2.4 nM
12,"CC(C)(C#N)c1n[nH]c(-c2cccc([C@@]34CC[C@@H](c5cc(-c6c(F)cccc6F)nnc53)C4(C)C)n2)n1 [Example 357, 2-(5-(6-((5R,8S)-3-(2,6-difluorophenyl)-9,9-dimethyl-5,6,7,8-tetrahydro-5,8-methanocinnolin-8-yl)pyridin-2-yl)-1H-1,2,4-triazol-3-yl)-2-methylpropanenitrile]",13 nM
13,Cc1nc(CO)nn1-c1nccc([C@@]23CC[C@@H](c4cc(-c5c(F)cccc5F)nnc42)C3(C)C)n1 [Example 358],60.4 nM
14,CC1(C)[C@H]2CC[C@]1(c1ccnc(-n3cnc(=O)[nH]3)n1)c1nnc(-c3c(F)cccc3F)cc12 [Example 359],17.3 nM
15,Cc1nc(=O)[nH]n1-c1nccc([C@@]23CC[C@@H](c4cc(-c5c(F)cccc5F)nnc42)C3(C)C)n1 [Example 360],127 nM
16,CC(C)(C)OC(=O)N1CCC[C@@H](c2nccc([C@@]34CC[C@@H](c5cc(-c6c(F)cccc6F)nnc53)C4(C)C)n2)C1 [Example 361],20.1 nM
17,CC(C)(C)OC(=O)N1CCCC(c2nccc([C@@]34CC[C@@H](c5cc(-c6c(F)cccc6F)nnc53)C4(C)C)n2)C1 (stereo partly shown) [Example 362],15.8 nM
18,Cc1ncnn1-c1ncc(F)c([C@@]23CC[C@@H](c4cc(-c5c(F)cccc5F)nnc42)C3(C)C)n1 [Example 363],33.5 nM
19,CC1(C)[C@H]2CC[C@]1(c1ccnc(C3CCCN(C(=O)CO)C3)n1)c1nnc(-c3c(F)cccc3F)cc12 (stereo partly shown) [Example 364],50.4 nM
20,"CC1(C)[C@H]2CC[C@]1(c1cncc(-c3nc([C@H](O)C(F)(F)F)co3)n1)c1nnc(-c3c(F)cccc3F)cc12 [Example 366, (S)-1-(2-(6-((5R,8S)-3-(2,6-difluorophenyl)-9,9-dimethyl-5,6,7,8-tetrahydro-5,8-methanocinnolin-8-yl)pyrazin-2-yl)oxazol-4-yl)-2,2,2-trifluoroethanol]",3.5 nM

row,Structure (SMILES),IC50
1,Cc1ccn(-c2nccc([C@@]34CC[C@@H](c5cc(-c6c(F)cccc6F)nnc53)C4(C)C)n2)n1 [Example 367],3.1 nM
2,CC1(C)[C@H]2CC[C@]1(c1ccnc(-n3cnc(CO)n3)n1)c1nnc(-c3c(F)cccc3F)cc12 [Example 368],5.4 nM
3,"CC1(C)[C@H]2CC[C@]1(c1cncc(-c3nc(CS(C)(=O)=O)co3)n1)c1nnc(-c3c(F)cccc3F)cc12 [Example 369, 2-(6-((5R,8S)-3-(2,6-difluorophenyl)-9,9-dimethyl-5,6,7,8-tetrahydro-5,8-methanocinnolin-8-yl)pyrazin-2-yl)-4-((methylsulfonyl)methyl)oxazole]",3.6 nM
4,CC(C)(O)c1ccc(-c2nccc([C@@]34CC[C@@H](c5cc(-c6c(F)cccc6F)nnc53)C4(C)C)n2)cn1 [Example 370],4.4 nM
5,"CC(C)(O)c1coc(-c2cncc([C@@]34CC[C@@H](c5cc(-c6c(F)cccc6Cl)nnc53)C4(C)C)n2)n1 [Example 371, 2-(2-(6-((5R,8S)-3-(2-chloro-6-fluorophenyl)-9,9-dimethyl-5,6,7,8-tetrahydro-5,8-methanocinnolin-8-yl)pyrazin-2-yl)oxazol-4-yl)propan-2-ol]",3.3 nM
6,CC(C)(O)c1cc(-c2nccc([C@@]34CC[C@@H](c5cc(-c6c(F)cccc6F)nnc53)C4(C)C)n2)ccn1 [Example 372],2.6 nM
7,CC1(C)[C@H]2CC[C@]1(c1ccnc(-c3ccc(C(N)=O)nc3)n1)c1nnc(-c3c(F)cccc3F)cc12 [Example 373],4 nM
8,CC1(C)[C@H]2CC[C@]1(c1ccnc(-c3ccc(CO)nc3)n1)c1nnc(-c3c(F)cccc3F)cc12 [Example 374],5.5 nM
9,Cc1ncn(-c2cncc([C@]34CC[C@H](c5cc(-c6c(F)cccc6F)nnc53)C4(C)C)n2)n1 [Example 375],10.4 nM
10,"CC1(C)[C@H]2CC[C@]1(c1cncc(C(=O)N[C@@H]3COC(=O)C3)n1)c1nnc(-c3c(F)cccc3F)cc12 [Example 376, 6-((5R,8S)-3-(2,6-difluorophenyl)-9,9-dimethyl-5,6,7,8-tetrahydro-5,8-methanocinnolin-8-yl)-N-((S)-5-oxotetrahydrofuran-3-yl)pyrazine-2-carboxamide]",27.2 nM
11,"CCC(O)(CC)c1coc(-c2cncc([C@@]34CC[C@@H](c5cc(-c6c(F)cccc6F)nnc53)C4(C)C)n2)n1 [Example 377, 3-(2-(6-((5R,8S)-3-(2,6-difluorophenyl)-9,9-dimethyl-5,6,7,8-tetrahydro-5,8-methanocinnolin-8-yl)pyrazin-2-yl)oxazol-4-yl)pentan-3-ol]",5.3 nM
12,"C[C@H](O)c1coc(-c2cncc([C@@]34CC[C@@H](c5cc(-c6c(F)cccc6F)nnc53)C4(C)C)n2)n1 [Example 378, (S)-1-(2-(6-((5R,8S)-3-(2,6-difluorophenyl)-9,9-dimethyl-5,6,7,8-tetrahydro-5,8-methanocinnolin-8-yl)pyrazin-2-yl)oxazol-4-yl)ethanol]",6.8 nM
13,"C[C@@H](O)c1coc(-c2cncc([C@@]34CC[C@@H](c5cc(-c6c(F)cccc6F)nnc53)C4(C)C)n2)n1 [Example 379, (R)-1-(2-(6-((5R,8S)-3-(2,6-difluorophenyl)-9,9-dimethyl-5,6,7,8-tetrahydro-5,8-methanocinnolin-8-yl)pyrazin-2-yl)oxazol-4-yl)ethanol]",7.4 nM
14,"CC1(C)[C@H]2CC[C@]1(c1cncc(-c3nc(CC#N)co3)n1)c1nnc(-c3c(F)cccc3F)cc12 [Example 380, 2-(2-(6-((5R,8S)-3-(2,6-difluorophenyl)-9,9-dimethyl-5,6,7,8-tetrahydro-5,8-methanocinnolin-8-yl)pyrazin-2-yl)oxazol-4-yl)acetonitrile]",6.1 nM
15,"CC1(C)[C@@H]2CC[C@@]1(c1cncc(-n3ccc(CO)n3)n1)c1nnc(-c3c(F)cccc3F)cc12 [Example 381, (1-(6-((5S,8R)-3-(2,6-difluorophenyl)-9,9-dimethyl-5,6,7,8-tetrahydro-5,8-methanocinnolin-8-yl)pyrazin-2-yl)-1H-pyrazol-3-yl)methanol]",6 nM
16,"CC[C@@H](O)c1coc(-c2cncc([C@@]34CC[C@@H](c5cc(-c6c(F)cccc6F)nnc53)C4(C)C)n2)n1 [Example 382, (R)-1-(2-(6-((5R,8S)-3-(2,6-difluorophenyl)-9,9-dimethyl-5,6,7,8-tetrahydro-5,8-methanocinnolin-8-yl)pyrazin-2-yl)oxazol-4-yl)propan-1-ol]",7.3 nM
17,"CC[C@H](O)c1coc(-c2cncc([C@@]34CC[C@@H](c5cc(-c6c(F)cccc6F)nnc53)C4(C)C)n2)n1 [Example 383, (S)-1-(2-(6-((5R,8S)-3-(2,6-difluorophenyl)-9,9-dimethyl-5,6,7,8-tetrahydro-5,8-methanocinnolin-8-yl)pyrazin-2-yl)oxazol-4-yl)propan-1-ol]",8.2 nM
18,"CC1(C)[C@H]2CC[C@]1(c1cncc(-c3nc(CC(N)=O)co3)n1)c1nnc(-c3c(F)cccc3F)cc12 [Example 384, 2-(2-(6-((5R,8S)-3-(2,6-difluorophenyl)-9,9-dimethyl-5,6,7,8-tetrahydro-5,8-methanocinnolin-8-yl)pyrazin-2-yl)oxazol-4-yl)acetamide]",6.9 nM
19,CC1(C)[C@H]2CC[C@]1(c1ccnc(-c3cccnc3O)n1)c1nnc(-c3c(F)cccc3F)cc12 [Example 385],19.7 nM
20,CC1(C)[C@H]2CC[C@]1(c1ccnc(-c3cc[nH]c(=O)c3)n1)c1nnc(-c3c(F)cccc3F)cc12 [Example 386],9.8 nM
